Assay results taken from US9365553B2, “Heterocyclic compound and H1 receptor antagonist” (Aska Pharmaceutical Co., Ltd., priority 2010, dated 2016).

Columns and labels:
[1] = target: T1, rat H1 receptor (Rattus norvegicus, UniProt P31390); assay: Rat H1 receptor affinity test (Test Example 1); type: binding; conditions: rat cerebrum membrane preparation, [3H]-pyrilamine 2 nmol/L
T1 construct: An H1 receptor membrane preparation was prepared from rat cerebrum; from tissue; host or cells: rat cerebrum
T1 sequence (P31390 whole entry): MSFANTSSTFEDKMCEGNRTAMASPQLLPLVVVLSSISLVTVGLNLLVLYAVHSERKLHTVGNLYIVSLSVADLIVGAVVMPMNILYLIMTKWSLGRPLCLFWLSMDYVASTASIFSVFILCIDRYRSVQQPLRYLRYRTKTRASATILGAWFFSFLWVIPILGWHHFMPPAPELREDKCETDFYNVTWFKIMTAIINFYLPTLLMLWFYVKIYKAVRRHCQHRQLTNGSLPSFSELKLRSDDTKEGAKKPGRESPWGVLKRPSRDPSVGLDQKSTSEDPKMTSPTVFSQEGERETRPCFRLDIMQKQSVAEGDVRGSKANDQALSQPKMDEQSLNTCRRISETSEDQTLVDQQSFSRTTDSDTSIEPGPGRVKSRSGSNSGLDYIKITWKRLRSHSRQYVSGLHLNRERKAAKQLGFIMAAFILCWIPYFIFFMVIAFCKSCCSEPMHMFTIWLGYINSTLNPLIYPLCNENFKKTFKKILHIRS
Protocol: An H1 receptor membrane preparation was prepared from rat cerebrum. […] To the resulting each sample, 50 μL of 8 nmol/L [^3H]-pyrilamine (manufactured by PerkinElmer) (final concentration: 2 nmol/L) was added and mixed. After the mixture was incubated at a room temperature for 30 minutes, the reaction solution was collected on a glass filter by a cell harvester (manufactured by Molecular Devices), and then the filter was washed with the incubation buffer. The glass filter was cut off and transferred in a vial. To the vial was added 5 mL of a scintillator (manufactured by National Diagnostics), and the mixture was shaken for not less than one hour. Thereafter, the radioactive concentration was measured by a liquid scintillation counter.

[2] = target: T2, human H1 receptor (Homo sapiens, UniProt P35367); assay: Human H1 receptor affinity test (Test Example 2); type: binding; conditions: CHO cell membrane preparation expressing human H1 receptor, [3H]-pyrilamine 2 nmol/L
T2 construct: purchased; host or cells: CHO cells
T2 sequence (P35367 whole entry): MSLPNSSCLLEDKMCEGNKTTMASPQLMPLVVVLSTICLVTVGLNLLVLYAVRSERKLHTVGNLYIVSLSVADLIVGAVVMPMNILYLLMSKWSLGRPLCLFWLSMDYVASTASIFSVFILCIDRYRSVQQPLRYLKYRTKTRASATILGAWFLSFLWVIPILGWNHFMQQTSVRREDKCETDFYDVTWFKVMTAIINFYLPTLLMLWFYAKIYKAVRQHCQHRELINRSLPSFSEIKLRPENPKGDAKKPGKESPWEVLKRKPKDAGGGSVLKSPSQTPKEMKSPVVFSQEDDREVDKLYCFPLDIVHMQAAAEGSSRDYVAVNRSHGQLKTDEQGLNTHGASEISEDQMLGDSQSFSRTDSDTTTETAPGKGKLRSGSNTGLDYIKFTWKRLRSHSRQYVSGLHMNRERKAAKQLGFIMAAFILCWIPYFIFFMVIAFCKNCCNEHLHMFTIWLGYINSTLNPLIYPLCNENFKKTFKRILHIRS
Protocol: Chinese hamster ovarian cells (CHO cells) having human H1 receptor forcibly express were purchased and used as an H1 receptor membrane preparation. […] To the resulting each sample, 50 μL of 8 nmol/L [^3H]-pyrilamine (final concentration: 2 nmol/L) was added and mixed. […] The glass filter was cut off and transferred in a vial. To the vial was added 5 mL of a scintillator (manufactured by National Diagnostics), and the mixture was shaken for not less than one hour. Thereafter, the radioactive concentration was measured by a liquid scintillation counter.

[3] = system: histamine-induced skin reaction in rat; assay: Histamine-induced skin reaction test in rat (Test Example 3); type: in vivo; conditions: oral, histamine 10 μg/0.1 mL/site intradermal, pigment area, read-out: Skin reaction test in rat ID50
Protocol: […] One hour after the administration, a 1% Evans Blue physiological saline solution (Tokyo Chemical Industry Co., Ltd.) was administered into the caudal vein in a dose of 5 mL/kg, and immediately histamine 10 μg/0.1 mL/site (manufactured by Wako Pure Chemical Industries, Ltd.) was intradermally administered into the dorsum. Thirty minutes after the administration, the rat was anesthetized with diethyl ether and then euthanized by cervical dislocation. The skin was ablated, and the major axis and minor axis of a spot of the pigment exuded into the skin were measured to calculate the area of the pigment.

Structure (SMILES)	IC50 [1] [nM]	IC50 [2] [nM]	ED50 [3] [mg/kg]
O=C(O)c1cccc(CN2CCC(OC(c3ccccc3)c3cccc(C(F)(F)F)c3)CC2)n1 (stereo not shown) [Example 26]	83		
O=C(O)c1ccc(CN2CCC(OC(c3ccccc3)c3ccccc3)CC2)o1 [Example 1, 5-(4-Benzhydryloxypiperidin-1-ylmethyl)furan-2-carboxylic acid]	81	14	
O=C(O)c1cccc(CN2CCC(OC(c3ccccc3)c3cccc(F)c3)CC2)n1 (stereo not shown) [Example 25]	12	22	
O=C(O)c1ccc(CN2CCC(OC(c3ccccc3)c3ccc(Cl)cc3)CC2)o1 (stereo not shown) [Example 43]	18	12	
O=C(O)c1cccc(CN2CCN(C(c3ccccc3)c3ccc(F)cc3)CC2)n1 (stereo not shown) [Example 143]		24	
O=C(O)c1cccc(CN2CCC(OC(c3ccccc3)c3ccccc3)C2)n1 (stereo not shown) [Example 24]	8.2	9.2	
O=C(O)c1ccnc(CN2CCC(OC(c3ccccc3)c3ccc(Cl)cc3)CC2)c1 (stereo not shown) [Example 42]	24	19	1.8
O=C(O)c1cccc(CN2CCC(=C3c4ccc(Cl)cc4CCc4cccnc43)CC2)n1 [Example 68]	40		
O=C(O)c1cccc(CN2CC[C@@H](OC(c3ccccc3)c3ccccc3)C2)n1 [Example 128, 6-((R)-3-Benzhydryloxypyrrolidin-1-ylmethyl)pyridine-2-carboxylic acid]		6.1	
Cc1ccc(C(OC2CCN(Cc3cc(C(=O)O)ccn3)CC2)c2ccccc2)cc1 (stereo not shown) [Example 41]	19	18	
O=C(O)c1cccc(CN2CCC(=C3c4ccccc4CCc4ccccc43)CC2)c1 [Example 74]			2.1
COc1ccc(C(OC2CCN(Cc3cccc(C(=O)O)n3)CC2)c2ccccc2)cc1 (stereo not shown) [Example 17]	110		
O=C(O)c1cccc(CN2CCC(=C3c4ccccc4COc4ccccc43)CC2)n1 [Example 80]		17	
O=C(O)c1cccc(CN2CC[C@H](OC(c3ccc(F)cc3)c3ccc(F)cc3)C2)n1 [Example 155]		10	
O=C(O)c1ccnc(CN2CCC(OC(c3ccccc3)c3cccc(F)c3)CC2)c1 (stereo not shown) [Example 40]	1.2	26	
O=C(O)c1cc(F)cc(CN2CCC(OC(c3ccccc3)c3ccccc3)CC2)c1 [Example 6]	38	11	0.6
O=C(O)c1cccc(CN2CCC(OC(c3ccccc3)c3ccc(F)cc3)CC2)n1 (stereo not shown) [Example 18]	89		0.2
O=C(O)c1ccc(CN2CCC(OC(c3ccccc3)c3ccc(F)cc3)CC2)cn1 (stereo not shown) [Example 85]		22	
O=C(O)c1cncc(CN2CCC(OC(c3ccccc3)c3ccccc3)CC2)c1 [Example 30]	42	15	
O=C(O)c1cccc(CN2CCC(OC(c3ccc(F)cc3)c3cccc(F)c3)CC2)n1 (stereo not shown) [Example 49]	89	17	1.5
O=C(O)c1ccnc(CN2CC[C@H](OC(c3ccccc3)c3ccccc3)C2)c1 [Example 131, 2-((S)-3-Benzhydryloxypyrrolidin-1-ylmethyl)isonicotinic acid]		15	
O=C(O)c1nc(CN2CCC(OC(c3ccccc3)c3ccccc3)CC2)cs1 [Example 36]	99		
O=C(O)c1ccnc(CN2CC[C@H](OC(c3ccc(F)cc3)c3ccc(F)cc3)C2)c1 [Example 154]		13	
